US11872236B2, “Pharmacological agents for treating ocular diseases” (CALASIA PHARMACEUTICALS, INC., priority 2018, dated 2024)
Read-outs that look alike come from different tables or passages of the source.

What was measured:
[1] = system: human lens epithelial (HLE) cells; assay: Cell-based heat protection, viability by Alamar blue; parameters: Cell Heat % protection: concentration or dose not given beside the values; conditions: for Cell-based [Heat] (max % net protection): Table 5; for Cell Heat % protection: Table 8
Description: Alamar blue was used for assessing viability. Mean±SEM of the measurements are shown.
Cell-based using assays using human lens epithelial cell lines SRA 01/04 and B3 were also performed. The cells were exposed to UV or heat and cell viability assessed 24 hours post-exposure by Alamar blue staining. In another experiment, SRA 01/04 cells were pre-incubated with varying concentrations of compounds two hours prior to UV exposure. Relative protection was measured as percent viability compared to vehicle control 24 hours following UV exposure. Mean±SEM of the measurements are shown.

[2] = system: SRA 01/04 HLE cells; assay: Cell-based UV protection, viability by Alamar blue; parameters: species or system human; conditions: Table 5;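 also: cells pretreated with compound at a range of concentrations before UV irradiation, viability read 24 h after exposure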
[3] = target: T1, alpha-A crystalline (Homo sapiens, UniProt P02489); assay: Ca+2 and UVC induced aggregation of alpha-A crystalline (absorbance screen); type: biochemical; conditions: for inhibition at 200 µM: read-out: Percent protection (at 200 μM); for EC50: preventing Ca+2 and UVC induced aggregation of alpha-A crystalline;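 as to all read-outs here: recombinant human alpha-A crystallin (500 µg/ml) preincubated 30 min with compound, then UV-induced aggregation tracked by absorbance at time points from 0 to 120 min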
T1 sequence (P02489 1-173): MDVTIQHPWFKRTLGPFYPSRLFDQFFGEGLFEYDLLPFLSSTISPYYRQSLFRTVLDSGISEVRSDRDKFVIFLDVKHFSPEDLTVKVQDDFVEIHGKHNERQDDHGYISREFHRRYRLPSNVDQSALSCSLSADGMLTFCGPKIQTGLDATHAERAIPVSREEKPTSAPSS

[4] = 200 μM, Ca+2 and UVC induced aggregation of alpha-A crystalline

| Compound | Cell-based [UV] (max % net protection) [2] | inhibition at 200 µM [3, 4] | further results |
| --- | --- | --- | --- |
| Cc1ccc(C(=O)c2ccccc2)c(N)c1 [CAP4152] | 17% | – | Cell-based [Heat] (max % net protection) [1]: 0% |
| Nc1ccc2c(O)cc(S(=O)(=O)O)cc2c1 [CAP4180] | – | – | Cell Heat % protection [1]: 22% |
| Nc1ccc(C(=O)c2ccccc2)cc1 [CAP4128] | 23% | – | – |
| O=C(c1ccccc1)c1ccccc1 [CAP4127] | 55% | – | Cell-based [Heat] (max % net protection) [1]: 9% |
| O=S(=O)(O)c1cc(O)c2cc(Nc3ccccc3)ccc2c1 [CAP4183] | – | – | Cell Heat % protection [1]: 17% |
| COc1cc(O)c(C(=O)c2ccccc2)cc1S(=O)(=O)[O-].[Na+] [CAP4135] | 75% | – | Cell-based [Heat] (max % net protection) [1]: 4% |
| COc1ccc(CCNC(=O)CCCC(=O)NCCc2ccc(OC)c(OC)c2)cc1OC [CAP1278] | – | – | Percent protection (at 200 μM) [3, 4]: 38% |
| O=C(OC[C@H]1OC(OC(=O)c2cc(O)c(O)c(OC(=O)c3cc(O)c(O)c(O)c3)c2)[C@H](OC(=O)c2cc(O)c(O)c(OC(=O)c3cc(O)c(O)c(O)c3)c2)[C@@H](OC(=O)c2cc(O)c(O)c(OC(=O)c3cc(O)c(O)c(O)c3)c2)[C@@H]1OC(=O)c1cc(O)c(O)c(OC(=O)c2cc(O)c(O)c(O)c2)c1)c1cc(O)c(O)c(OC(=O)c2cc(O)c(O)c(O)c2)c1 (stereo partly shown) [CAP1176] | – | 76% | – |
| COc1ccc(CC(=O)NC2CCCCCCCCCCC2)cc1OC [CAP1279] | – | 5% | – |
| COc1cc(O)c(C(=O)c2cc(S(=O)(=O)[O-])c(OC)cc2O)cc1S(=O)(=O)[O-].[Na+].[Na+] [CAP4136] | 70% | – | Cell-based [Heat] (max % net protection) [1]: 5% |
| O=C(NCCc1ccc(O)c(O)c1)C12CC3CC(CC(C3)C1)C2 [CAP1057] | – | -8% | – |
| O=C(O)c1ccc(C(=O)c2ccccc2C(=O)O)cc1 [CAP4173] | 61% | – | Cell-based [Heat] (max % net protection) [1]: 0% |
| COc1ccc(C(=O)c2ccc([N+](=O)[O-])cc2)cc1S(=O)(=O)NC1CCCCC1 [CAP4257] | 19% | – | – |
| COc1ccc(CCNC(=O)C2CCC2)cc1OC [CAP1226, N-[2-(3,4-dimethoxyphenyl)ethyl]cyclobutanecarboxamide] | – | 72% | EC50 [3]: 46.2 µM |
| O=C(c1ccccc1)c1ccc([N+](=O)[O-])cc1 [CAP4131] | 0% | – | – |
| O=C1O[C@H]([C@@H](O)CO)C(O)=C1O [CAP3037] | – | -2% | – |
| CC(CCc1ccc(O)cc1)NCCc1ccc(O)c(O)c1 (stereo not shown) [CAP1051] | – | – | inhibition at 200 µM [3]: -28% |
| O=c1c(O)c(-c2ccc(O)c(O)c2)oc2cc(O)cc(O)c12 [CAP1451] | – | 35% | – |
| Oc1cc2cc[nH]c2cc1O [CP1194] | – | 25% | EC50 [3]: 1100 µM |
| O=C(c1ccccc1)c1ccc(O)c(O)c1O [CAP4133] | 22% | – | Cell-based [Heat] (max % net protection) [1]: 18% |
| COc1ccc(CCNC(=O)C2CCCC2)cc1OC [CAP1231, N-[2-(3,4-dimethoxyphenyl)ethyl]cyclopentanecarboxamide] | – | 51% | – |
| COc1ccc(CCNC(=O)CC23CC4CC(CC(C4)C2)C3)cc1OC [CAP1281] | – | 64% | – |

| Compound | Cell-based [UV] (max % net protection) [2] | inhibition at 200 µM [3, 4] | further results |
| --- | --- | --- | --- |
| O=C(c1ccccc1)c1ccc(O)c(O)c1 [CAP1347] | 28% | 13% | Cell-based [Heat] (max % net protection) [1]: 8%; EC50 [3]: 115 µM |
| COc1ccc(CCNC(=O)C2CCN(C(=O)Cc3ccccc3)CC2)cc1OC [CAP1227, N-[2-(3,4-dimethoxyphenyl)ethyl]-1(phenylacetyl)-4-piperidinecarboxamide] | – | 46% | EC50 [3]: 288 µM |
| COc1ccc(/C=C/C(C)=O)cc1OC [CAP3066] | – | 21% | – |
| CC(=O)/C=C/c1ccc(O)c(O)c1 [CAP3065] | – | -32% | – |
| Oc1ccc(C2CNCCc3c2cc(O)c(O)c3Cl)cc1 (stereo not shown) [CAP1044] | – | -16% | – |
| Nc1ccc(C(=O)c2ccccc2)cc1N [CAP4129] | 37% | – | Cell-based [Heat] (max % net protection) [1]: 0% |
| Oc1cc(O)c2c(c1)O[C@H](c1ccc(O)c(O)c1)[C@H](O)C2 [CAP1049] | – | – | Percent protection (at 200 μM) [3, 4]: −5% |
| CC(=O)c1cc(C)cc([N+](=O)[O-])c1O [CAP3071] | – | 30% | – |
| O=C(O)/C=C/c1ccc(O)c(O)c1 [CAP3062] | – | 16% | – |
| COc1ccc(/C=C/C(=O)O)cc1OC [CAP3064] | – | 12% | – |
| COc1ccc(C(=O)c2ccccc2)cc1 [CAP4130] | 55% | – | Cell-based [Heat] (max % net protection) [1]: 42% |
| CCCCCCCCCCCCCCCCCC(=O)NCCc1ccc(O)c(O)c1 [CAP1241] | – | 135% | – |
| COc1cc(CNc2cccc(C)n2)cc([N+](=O)[O-])c1O [CAP1112] | – | 12% | – |
| O=C(O)c1ccc(C(=O)c2ccc(C(=O)O)cc2)cc1 [CAP4160] | 82% | – | Cell-based [Heat] (max % net protection) [1]: 0% |
| O=C(O)c1ccc(C(=O)c2ccccc2)cc1 [CAP4172] | 67% | – | Cell-based [Heat] (max % net protection) [1]: 9% |
| CC(=O)Oc1cc2cc[nH]c2cc1OC(C)=O [CAP1517] | – | 40% | – |
| Nc1ccc2c(O)cc(S(=O)(=O)O)cc2c1 [CAP4190] | – | – | Cell Heat % protection [1]: 15% |
| Nc1ccc(Cl)cc1C(=O)c1ccccc1Cl [CAP4126] | 0% | – | – |
| COc1ccc(C(=O)c2ccccc2)cc1OC [CAP4132] | 39% | – | Cell-based [Heat] (max % net protection) [1]: 0% |
| O=C(c1cccc(F)c1)c1cccc(F)c1 [CAP4161] | 38% | – | Cell-based [Heat] (max % net protection) [1]: 8% |
| C[C@@](Cc1ccc(O)c(O)c1)(NN)C(=O)O [CAP1055] | – | 1% | – |
| CCc1onc2ccc(C(=O)c3ccccc3)cc12 [CAP4258] | 36% | – | – |

| Compound | Cell-based [UV] (max % net protection) [2] | inhibition at 200 µM [3, 4] | further results |
| --- | --- | --- | --- |
| NC(=O)Cc1cccc(C(=O)c2ccccc2)c1N [CAP4281] | 38% | – | Cell-based [Heat] (max % net protection) [1]: 8% |
| CC1CCC(NC(C)Cc2ccc(O)c(O)c2)CC1 (stereo not shown) [CAP1240] | – | – | inhibition at 200 µM [3]: -13% |
| O=C(c1cccc([N+](=O)[O-])c1)c1ccc2c(c1)C(=O)OC2=O [CAP4265] | 129% | – | Cell-based [Heat] (max % net protection) [1]: 17% |
| COc1ccc(CCNC(=O)CCCC(=O)NCOc2ccc(OC)cc2)cc1 [CAP1229] | – | 22% | – |
| COc1cc2nc(N3CCN(C(=O)C4COc5ccccc5O4)CC3)nc(N)c2cc1OC (stereo not shown) [CAP3035] | – | 114% | – |
| COc1ccc(CCNC(=O)CCC2CCCCC2)cc1OC [CAP1224] | – | – | Percent protection (at 200 μM) [3, 4]: 46%; EC50 [3]: 880 µM |
| Nc1c(O)cc(S(=O)(=O)O)c2ccccc12 [CAP4188] | – | – | Cell Heat % protection [1]: 2% |
| COc1ccc(C(=O)c2ccc([N+](=O)[O-])cc2)cc1S(=O)(=O)NCc1ccccc1 [CAP4256] | 7% | – | – |
| Nc1cc(S(=O)(=O)O)cc2cc(S(=O)(=O)O)cc(O)c12 [CAP4179] | – | – | Cell Heat % protection [1]: 29% |
| Oc1cc(O)c2c(c1)O[C@H](c1ccc(O)c(O)c1)[C@@H](O)C2 [CAP1047] | – | -17% | – |
| Oc1cc(O)c2c(c1)O[C@H](c1ccc(O)c(O)c1)[C@H](O)C2 [CAP3042] | – | – | Percent protection (at 200 μM) [3, 4]: −17% |
| COc1ccc(CCNC(=O)CCC2CCCCC2)cc1OC [CAP1274] | – | 55% | – |
| COc1ccc(CCNC(=O)C2CCCCC2)cc1OC [CAP1222] | – | 38% | – |
| O=c1c(O)c(-c2ccc(O)c(O)c2)oc2cc(O)ccc12 [CAP1053] | – | 52% | EC50 [3]: 461 µM |
| O=C(c1ccccc1)c1ccccc1S(=O)(=O)c1ccccc1 [CAP4279] | 5% | – | Cell-based [Heat] (max % net protection) [1]: 0% |
| COc1cc(O)c(C(=O)c2ccccc2)cc1S(=O)(=O)O [CAP4162] | 60% | – | Cell-based [Heat] (max % net protection) [1]: 3% |
| Nc1ccc2cc(S(=O)(=O)[O-])cc(O)c2c1.[Na+] [CAP4187] | – | – | Cell Heat % protection [1]: 19% |
| COc1cc(/C=N/c2cccc(C)n2)cc([N+](=O)[O-])c1O [CAP1110] | – | 19% | – |
| O=S(=O)([O-])c1cc(O)c2cc(O)ccc2c1.[Na+] [CAP4186] | – | – | Cell Heat % protection [1]: 17% |
| Oc1ccc(CCNCCCCCCNCCc2ccccc2)cc1O [CAP1215] | – | -47% | – |
